Experimental data: ChEMBL document CHEMBL1125524, “Adenosine A1 antagonists. 2. Structure-activity relationships on diuretic activities and protective effects against acute renal failure” (J Med Chem, 1992)

Columns and labels:
Rattus norvegicus [1] = test: Effect on urinary excretion potassium and sodium after oral administration of 0.4 mg/kg to rats(potassium and sodium excretion in control rat is 0.175+/-0.014); format: functional, Urine
Rattus norvegicus [2] = test: Effect on urinary excretion potassium and sodium after oral administration of 1.6 mg/kg to rats(potassium and sodium excretion in control rat is 0.122+/-0.008); format: functional, Urine
Rattus norvegicus [3] = test: Ratio of urinary excretion value (urinary volume) in treated rats to that in control rats, at a peroral dose of 0.4 mg/Kg; format: functional, Urine
Rattus norvegicus [4] = test: Ratio of urinary excretion value (urinary volume) in treated rats to that in control rats, at a peroral dose of 1.6 mg/Kg; format: functional, Urine
Rattus norvegicus [5] = test: Ratio of urinary excretion value (urinary volume) in treated rats to that in control rats, at a peroral dose of 25 mg/Kg; format: functional, Urine
Rattus norvegicus [6] = test: Ratio of sodium ion/potassium ion concentration in treated rats to that in control rats, at a peroral dose of 0.4 mg/Kg; format: functional
Rattus norvegicus [7] = test: Ratio of sodium ion/potassium ion concentration in treated rats to that in control rats, at a peroral dose of 1.6 mg/Kg; format: functional
Rattus norvegicus [8] = test: Ratio of sodium ion/potassium ion concentration in treated rats to that in control rats, at a peroral dose of 25 mg/Kg; format: functional
Rattus norvegicus [9] = test: Ratio of urinary excretion value (Na+ concentration) in treated rats to that in control rats, at a peroral dose of 0.4 mg/Kg; format: functional, Urine
Rattus norvegicus [10] = test: Ratio of urinary excretion value (Na+ concentration) in treated rats to that in control rats, at a peroral dose of 1.6 mg/Kg; format: functional, Urine
Rattus norvegicus [11] = test: Ratio of urinary excretion value (Na+ concentration) in treated rats to that in control rats, at a peroral dose of 25 mg/Kg; format: functional, Urine
Rattus norvegicus [12] = test: Ratio of urinary excretion value (Na+ concentration) in treated rats to that in control rats, at a peroral dose of 6.25 mg/Kg; format: functional, Urine
Rattus norvegicus [13] = test: Effect on urinary excretion potassium and sodium after oral administration of 25 mg/kg to rats(potassium and sodium excretion in control rat is […]+/-[…]); format: functional, Urine
Rattus norvegicus [14] = test: Oral diuretic activity was measured after oral administration of 25 mg/kg to rats(control volume is […]+/-[…]); format: functional, Urine
Rattus norvegicus [15] = test: Oral diuretic activity was measured after oral administration of 0.4 mg/kg to rats(control volume is 0.94+/-0.03); format: functional, Urine
Rattus norvegicus [16] = test: Oral diuretic activity was measured after oral administration of 1.6 mg/kg to rats(control volume is 0.83+/-0.07); format: functional, Urine
Rattus norvegicus [17] = test: Serum creatinine concentration measured after intraperitoneal administration of 1 mg/kg of compound to rats(vehicle 5.43+/-0.11); format: functional
Rattus norvegicus [18] = test: Urea nitrogen concentration measured after intraperitoneal administration of 1 mg/kg of compound to rats(vehicle 182.5+/-3.4); format: functional
Rattus norvegicus [19] = test: Percent inhibition of serum creatinine by the compound given as ratio of Cr value in treated to vehicle treated ones after intraperitoneal administration of 1 mg/kg of compound to rats(vehicle 5.43+/-0.11); format: functional; settings: ip
Rattus norvegicus [20] = test: Percent inhibition of Urea nitrogen by the compound given as ratio of UN value in treated to vehicle treated ones after intraperitoneal administration of 1 mg/kg of compound to rats(vehicle 182.5+/-3.4); format: functional; settings: ip
Rattus norvegicus [21] = test: Ratio of urinary excretion value (urinary volume) in treated rats to that in control rats, at a peroral dose of 6.25 mg/Kg; format: functional, Urine
Adenosine receptor A1 = molecular target: T1, Adenosine receptor A1 (Rattus norvegicus, UniProt P25099)
T1 sequence (P25099 whole entry): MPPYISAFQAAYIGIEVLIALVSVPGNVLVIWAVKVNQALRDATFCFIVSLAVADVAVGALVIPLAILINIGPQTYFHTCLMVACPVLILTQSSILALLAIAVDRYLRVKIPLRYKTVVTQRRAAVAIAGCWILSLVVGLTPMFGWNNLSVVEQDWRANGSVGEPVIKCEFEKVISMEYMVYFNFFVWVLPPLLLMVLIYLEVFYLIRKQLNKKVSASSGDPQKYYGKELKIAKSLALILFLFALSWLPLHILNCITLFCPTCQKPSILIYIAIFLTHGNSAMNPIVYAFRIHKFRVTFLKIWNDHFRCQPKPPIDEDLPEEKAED
Description: Binding affinity towards adenosine A1 receptor in rat forebrain membranes using N6-[3H]cyclohexyladenosine

Adenosine A2 receptor = Adenosine A2 receptor (Rattus norvegicus, UniProt P29276+P30543)
Rattus norvegicus [22] = test: Serum creatinine concentration measured after intraperitoneal administration of 1 mg/kg of compound to rats(vehicle 4.70+/-0.17); format: functional
Rattus norvegicus [23] = test: Serum creatinine concentration measured after intraperitoneal administration of 10 mg/kg of compound to rats(vehicle 4.41+/-0.16); format: functional
Rattus norvegicus [24] = test: Percent inhibition of serum creatinine by the compound given as ratio of Cr value in treated to vehicle treated ones after intraperitoneal administration of 1 mg/kg of compound to rats(vehicle 4.70+/-0.17); format: functional; settings: ip
Rattus norvegicus [25] = test: Percent inhibition of serum creatinine by the compound given as ratio of Cr value in treated to vehicle treated ones after intraperitoneal administration of 10 mg/kg of compound to rats(vehicle 4.41+/-0.16); format: functional; settings: ip
Rattus norvegicus [26] = test: Urea nitrogen concentration measured after intraperitoneal administration of 1 mg/kg of compound to rats(vehicle 154.2+/-5); format: functional
Rattus norvegicus [27] = test: Effect on urinary excretion potassium and sodium after oral administration of 25 mg/kg to rats(potassium and sodium excretion in control rat is 0.180+/-0.014); format: functional, Urine
Rattus norvegicus [28] = test: Oral diuretic activity was measured after oral administration of 25 mg/kg to rats(control volume is 1.21+/-0.08); format: functional, Urine
Rattus norvegicus [29] = test: Urea nitrogen concentration measured after intraperitoneal administration of 10 mg/kg of compound to rats(vehicle 145.1+/-7.4); format: functional
Rattus norvegicus [30] = test: Percent inhibition of Urea nitrogen by the compound given as ratio of UN value in treated to vehicle treated ones after intraperitoneal administration of 10 mg/kg of compound to rats(vehicle 145.1+/-7.4); format: functional; settings: ip
Rattus norvegicus [31] = test: Percent inhibition of Urea nitrogen by the compound given as ratio of UN value in treated to vehicle treated ones after intraperitoneal administration of 1 mg/kg of compound to rats(vehicle 154.2+/-5); format: functional; settings: ip

## CCCn1c(=O)c2nc(C(C3CC3)C3CC3)[nH]c2n(CCC)c1=O
Rattus norvegicus [1]
  Na: 0.255 m equiv 6hr-1 100g-1
Rattus norvegicus [2]
  Na: 0.284 m equiv 6hr-1 100g-1
Rattus norvegicus [3]
  T/C: 1.33
Rattus norvegicus [4]
  T/C: 2.2
Rattus norvegicus [5]
  T/C: 2.44
Rattus norvegicus [6]
  Na+/K+: 1.27
Rattus norvegicus [7]
  Na+/K+: 1.56
Rattus norvegicus [8]
  Na+/K+: 1.71
Rattus norvegicus [9]
  T/C: 1.45
Rattus norvegicus [10]
  T/C: 2.33
Rattus norvegicus [11]
  T/C: 2.16
Rattus norvegicus [12]
  T/C: 2.69
Rattus norvegicus [13]
  Na: 0.35 m equiv 6hr-1 100g-1
Rattus norvegicus [14]
  Urine volume: 2.07 ml 6hr-1 100g-1
Rattus norvegicus [15]
  Urine volume: 1.25 ml 6hr-1 100g-1
Rattus norvegicus [16]
  Urine volume: 1.83 ml 6hr-1 100g-1
Rattus norvegicus [17]
  Cr: 5.43 mg/dL
Rattus norvegicus [18]
  UN: 107.6 mg/dL
Rattus norvegicus [19]
  inhibition in vivo at 1 mg/kg: 45%
Rattus norvegicus [20]
  inhibition in vivo at 1 mg/kg: 41%
Rattus norvegicus [21]
  T/C: 2.39
Adenosine receptor A1
  Ki: 0.99 nM
Adenosine A2 receptor
  Ki: 430 nM

## Cn1c(=O)c2c(ncn2C)n(C)c1=O [CAFFEINE]
Rattus norvegicus [22]
  Cr: 3.68 mg/dL
Rattus norvegicus [23]
  Cr: 2.85 mg/dL
Rattus norvegicus [24]
  inhibition in vivo at 1 mg/kg: 22%
Rattus norvegicus [25]
  inhibition in vivo at 10 mg/kg: 35%
Rattus norvegicus [5]
  T/C: 1.68
Rattus norvegicus [26]
  UN: 125.7 mg/dL
Rattus norvegicus [8]
  Na+/K+: 1.28
Rattus norvegicus [11]
  T/C: 1.55
Rattus norvegicus [12]
  T/C: 1.1
Rattus norvegicus [27]
  Na: 0.28 m equiv 6hr-1 100g-1
Rattus norvegicus [28]
  Urine volume: 1.84 ml 6hr-1 100g-1
Rattus norvegicus [29]
  UN: 109 mg/dL
Rattus norvegicus [30]
  inhibition in vivo at 10 mg/kg: 25%
Rattus norvegicus [31]
  inhibition in vivo at 1 mg/kg: 18%
Rattus norvegicus [21]
  T/C: 0.92
